Experimental data published in PubChem BioAssay (NCI).
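These data come from cells grown in 96-well plates and exposed to compound for 48 hours at five concentrations. Definition used: TGI = concentration required for complete inhibition of growth.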

Assays:
Assay in all cases: growth of human tumour cells (NCI), 48 h
LXFL 529 NSCLC = tested on: LXFL 529 NSCLC
HOP-18 NSCLC = tested on: HOP-18 NSCLC
KM20L2 colon = tested on: KM20L2 colon
DMS 114 small cell lung = tested on: DMS 114 small cell lung
DLD-1 colon = tested on: DLD-1 colon

Structure (SMILES)	TGI (LXFL 529 NSCLC) [µM]	TGI (HOP-18 NSCLC) [µM]	TGI (KM20L2 colon) [µM]	TGI (DMS 114 small cell lung) [µM]	TGI (DLD-1 colon) [µM]
COC(=O)[C@@]12OC[C@]34C([C@@H](O)C1O)[C@@]1(C)CC(=O)C(OC(=O)CC(C)C(F)(F)F)=C(C)C1C[C@H]3OC(=O)[C@H](O)[C@H]42 (stereo partly drawn)	> 62.5	29.2	> 62.5	18.5	–
O=C(c1ccccc1)C1(Br)S(=O)(=O)OCCOS1(=O)=O	> 100	–	> 100	> 100	> 100
COc1ccc2nc3cc(Cl)ccc3c(NC(C)CCCN(CCCl)CCCl)c2c1 (stereo not drawn)	2.5	–	5.73	11.4	4.1
CCN(CC)CCNc1ccc2ncn3c4ccc(O)cc4c(=O)c1c23	17.6	33.3	14.9	–	15.1
CC(C)(CN1CCCCC1)C(=O)/C=C/c1ccc(Br)cc1	3.52	6.83	6.85	3.44	10.3
O=C1c2ccccc2C(=O)c2[nH]cnc21	–	–	–	86.9	> 100
